Patent EP2623502A1, “NOVEL COMPOUND HAVING STRIGOLACTONE-LIKE ACTIVITY AND USE THEREOF” (Riken, priority 2010, dated 2012)

How the values were obtained:
rice d10 variant = assay: Tiller (rice branching) inhibitory activity in hydroponic culture; assay type: in vivo; details: for activity of inhibiting the morphology of the tiller / length of the secondary tiller: rice d10 variant; for length of the secondary tiller: compared with untreated d10 variant (Figure 4)
Description: In this Example, a rice d10 variant (Arite et al., Plant J, 51 (6) 1019-1029 (2007)) was used, and the strigolactone-like compound of the present invention was examined for its effects on this variant. […] In this d10 variant, the functions of a strigolactone biosynthetic enzyme are inhibited by the variation of the strigolactone biosynthetic gene so that the amount of endogenous strigolactone is decreased.
First, rice seeds were sterilized for 30 minutes with 2.5% sodium hypochlorite containing 0.01% Tween-20 and then washed with sterilized water. Then, the seeds were germinated by culture for 2 days in sterilized water of 25°C under dark conditions. The germinated seeds were transferred to a hydroponic culture medium containing 0.6% agar and grown for 6 days under conditions of a 16-hour light period and an 8-hour dark period under a fluorescent light. […] The number of tillers and the length of each tiller were determined. In this context, the test compounds used were the strigolactone-like compounds BPMF, TFTF, CPMF, NPMF, FPMF, and IPMF shown in Figure 1A, NaMF described in Synthesis Example 3, and GR24 as a control at a concentration of 1 µM, 100 nM, or 10 nM.
In the same way as in Example 1(1), the strigolactone-like compound was examined for its effects on rice tillers.
In this context, the test compounds used were p-CPMF, m-CPMF, o-CPMF, o-FPMF (1-14), o-BPMF (1-15), p-BPMF, 1-NaphMF (1-16), 2-NaphMF (NaMF), CNMF (1-17), CQMF (1-19), and TeMF (1-18) and GR24 as a control at a concentration of 1 µM or 100 nM. Also, PMF and p-CBMF were used at a concentration of 1 µM.
In this context, the test compounds used were 2-1 (2,3-DCMF), 2-2 (2,4-DCMF), 2-3 (2,5-DCMF), and 2-4 (2,6-DCMF) at a concentration of 1 µM, 100 nM, or 10 nM and GR24 as a control at a concentration of 1 µM or 100 nM.
In this context, the test compounds used were p-BPMF, 2,4-DCMF (2-2), o-BBMF (3-1), o-BPMF (1-15), o-CBMF (3-2), o-CPMF, and o-FPMF (1-14) at a concentration of 100 nM or 10 nM, 2-16, 2-6, 2-17, 2-18, and 2-19 at a concentration of 0.1 µM or 1 µM, and GR24 as a control at a concentration of 1 µM or 100 nM.

[1] = in water at 20°C; cited from earlier work
[2] = test system: Arabidopsis thaliana max3 variant; assay: Branching inhibitory activity in hydroponic culture; assay type: in vivo; details: for activity of inhibiting the morphology of the tiller of the max3 variant: 5 µM in hydroponic culture solution, 15 days (Figure 6)
Text: In this Example, the strigolactone-like compound BPMF of the present invention was examined for its effects on an Arabidopsis thaliana max3 variant. The Arabidopsis thaliana max3 variant is a strigolactone-deficient variant, as in the rice d10 variant, and is known to have a larger number of branches (Booker J. et al., Current Biology, 14: 1232-1238 (2004)).
Briefly speaking, the surfaces of the respective seeds of wild-type Arabidopsis thaliana and the max3 variant were separately sterilized for 5 minutes with a 1% aqueous sodium hypochlorite solution. The thus-treated seeds of each strain were washed five times with sterilized water and allowed to absorb water at 4°C for 1 day under dark conditions. Then, the seeds were inoculated to a 1/2 MS medium containing 1% sucrose and 0.8% agar and cultured at 22°C for 15 days under conditions of a 16-hour day length under a fluorescent light (60 to 70 µmol m^-2 s^-1). […] Nine healthy seedlings were selected from each pot and further hydroponically cultured for 15 days (a total of 30 days) so as to prevent the above-ground part from being wetted by the hydroponic culture solution. The test compounds used were BPMF and GR24 (control). The test compound-containing hydroponic culture solution was replaced every three days.

endogenous strigolactone = assay: Measurement of amount of endogenous strigolactone (LC/MS-MS); assay type: in vivo, rice (Shiokari); details: 24 hours, 0.1 µM, 1 µM or 10 µM
Description: In this Example, the amount of strigolactone exudates from a plant treated with the strigolactone-like compound was measured.
A sterilized solution I (2.5% sodium hypochlorite and 0.01% Tween-20) was added to rice seeds (Shiokari) and shaken at room temperature for 15 minutes. The sterilized solution I was discarded, and a sterilized solution II (2.5% sodium hypochlorite) was added thereto and shaken at room temperature for 15 minutes. In a clean bench, the sterilized solution II was discarded, and the seeds were washed five times with sterilized water and left standing at 25°C for 2 days in a dark place. Two days later, the germinated seeds were transplanted in an agar medium for hydroponic rice culture and left standing at 25°C for 6 days under conditions of a 16-hour light period and an 8-hour dark period. […]
To each hydroponic rice culture solution, 200 pg of d1-2'-epi-5-deoxystrigol per 10 mL of the hydroponic rice culture solution was added, followed by extraction with ethyl acetate (3 mL) twice. […] The sample was dried, dissolved in 50% acetonitrile, and analyzed by LC/MS-MS.
To the rice root dipped in acetone, 200 pg of d1-2'-epi-5-deoxystrigol was added, and the root was then disrupted. […] The sample was dried, dissolved in 50% acetonitrile, and analyzed by LC/MS-MS.

[3] = Stability test in water (residual compound by HPLC); assay type: physicochemical; details: 30 days in water at 20°C, read-out: stably present after being left in water
Description: The strigolactone-like compound BPMF was left for 30 days in water at 20°C, and change in its activity was then determined. Briefly speaking, rice was hydroponically cultured in the same way as in the hydroponic rice culture solution test conducted in Example 3, and the amount of a residual compound in the resulting solution was calculated using HPLC. First, the hydroponic culture solution adjusted to a predetermined concentration was collected at regular intervals and filtered through a filter. Then, a predetermined amount (e.g., 10 µl) was analyzed by HPLC. The content was determined on the basis of an area value, and the degree of decomposition was calculated by comparison with a standard.

parasitic weed = assay: Parasitic weed germination-inducing activity (result not shown); assay type: in vivo; details: compared with p-BPMF
Description: In this Example, the seeds of a parasitic weed Orobanche minor or Striga hermonthica were used, and the strigolactone-like compound of the present invention was examined for its parasitic weed germination-promoting activity.
The Striga hermonthica seeds were dipped in a 0.5% sodium hypochlorite solution containing 0.03% Tween and sterilized by treatment for 3 minutes using an ultrasonic generator. The seeds were washed three times with sterilized water and surface-dried at 27°C. Then, approximately 50 seeds were left, for preculture, at room temperature for 10 to 12 days under dark conditions on an 8-mm glass fiber filter paper moistened with 50 µl of sterilized water. A solution of each test compound concentration-adjusted by dissolution in sterilized water was used in bioassay. A filter paper was placed on a 5-cm Petri dish, and 1 ml of the test compound solution or sterilized water for comparison was added thereto. The glass fiber filter paper with the precultured parasitic weed seeds placed thereon was put on the resulting Petri dish and cultured at 30°C for 24 hours, followed by calculation of the germination rate. The test compounds used were the strigolactone-like compound BPMF shown in Figure 1A and GR24 as control at a concentration of 50 µM. […]

[4] = concentration of 100 nM, Example 8 (Figure 14)
[5] = concentration of 100 nM, Example 10 (Figures 16-1, 16-2)

## CC1=CC(Oc2cccc(Cl)c2Cl)OC1=O (stereo not shown) [2-1]
Rice d10 variant; [4]
  activity of inhibiting the morphology of the tiller: high activity

## CC1=CC(Oc2ccc(Cl)cc2Cl)OC1=O (stereo not shown) [2-2]
Rice d10 variant; [4]
  activity of inhibiting the morphology of the tiller: high activity
Rice d10 variant; [5]
  activity of inhibiting the morphology of the tiller: high activity

## CC1=CC(Oc2cc(Cl)ccc2Cl)OC1=O (stereo not shown) [2-3]
Rice d10 variant; [4]
  activity of inhibiting the morphology of the tiller: high activity

## CC1=CC(Oc2ccc(Br)cc2Br)OC1=O (stereo not shown) [2-6]
Rice d10 variant; [5]
  activity of inhibiting the morphology of the tiller: high activity

## CC1=CC(Oc2ccc(F)cc2F)OC1=O (stereo not shown) [2-16]
Rice d10 variant; [5]
  activity of inhibiting the morphology of the tiller: high activity

## CC1=CC(Oc2ccc(I)cc2I)OC1=O (stereo not shown) [2-17]
Rice d10 variant; [5]
  activity of inhibiting the morphology of the tiller: high activity

## CC1=CC(Oc2ccc(C(F)(F)F)cc2C(F)(F)F)OC1=O (stereo not shown) [2-18]
Rice d10 variant; [5]
  activity of inhibiting the morphology of the tiller: high activity

## CC1=CC(Oc2ccc(C#N)cc2C#N)OC1=O (stereo not shown) [2-19]
Rice d10 variant; [5]
  activity of inhibiting the morphology of the tiller: high activity

## CC1=CC(OC=C2C(=O)OC3C4=C(CCCC4(C)C)CC23)OC1=O (stereo not shown) [5-DS]
[1]
  half-life: approximately 1.5 days

## CC1=CC(Oc2ccc(Br)cc2)OC1=O (stereo not shown) [BPMF, 5-(4-bromophenoxy)-3-methylfuran-2(5H)-one]
Rice d10 variant; after 12-day growth, 10 µM (Figure 3)
  morphology of the d10 variant: restored its morphology similar to that of the wild-type strain
Rice d10 variant; compared with GR24 (Figure 4)
  concentration-dependent activity against the rice d10 variant: strong activity, which was larger than that of the typical non-natural strigolactone GR24
Rice d10 variant; d10 variant, 27, 37 and 47 days after treatment with 1 nM or 10 nM (Figure 5)
  time-dependent change in the number of tillers: more effective and have more persistent activity than GR24
Rice d10 variant
  length of the secondary tiller: obviously inhibited
Rice d10 variant; concentration of 10 nM (Figure 2)
  activity of inhibiting the morphology of the tiller: strongest activity
Rice d10 variant; concentration of 100 nM, Example 6 (Figures 12-1 to 12-3)
  activity of inhibiting the morphology of the tiller: strongest activity
Rice d10 variant; [5]
  activity of inhibiting the morphology of the tiller: high activity
[2]
  activity of inhibiting the morphology of the tiller of the max3 variant: exhibited the activity of inhibiting the morphology of the tiller of the max3 variant
[2]; after 30-day growth, 1 µM (Figure 7)
  morphology of the max3 variant: restored its morphology similar to that of the wild-type strain
Endogenous strigolactone; compared with GR24 (Figure 10)
  amount of endogenous strigolactone exudates from the rice root to the hydroponic culture solution: decreased the amount of natural strigolactone synthesized, and this effect was higher than that of GR24
Endogenous strigolactone; in the hydroponic rice culture solution and the rice root
  amount of plant natural strigolactone synthesized: decreased
[3]
  remaining at 720 h: ≥ 95%

## CC1=CC(OC=C2C(=O)OC3c4ccccc4CC23)OC1=O (stereo not shown) [GR24, reference compound]
[2]
  activity of inhibiting the morphology of the tiller of the max3 variant: exhibited the activity of inhibiting the morphology of the tiller of the max3 variant
[1]
  half-life: approximately 10 days

## CC1=CC(Oc2ccc3ccccc3c2)OC1=O (stereo not shown) [NaMF]
Rice d10 variant; 6 days in hydroponic solution with compound at 1 µM, 100 nM or 10 nM (Figure 2)
  activity of inhibiting the morphology of the tiller: slightly weaker than that of the other compounds

## CC1=CC(Oc2ccc(C(F)(F)F)cc2)OC1=O (stereo not shown) [TFTF]
Rice d10 variant
  length of the secondary tiller: obviously inhibited

## CC1=CC(Oc2ccccc2Br)OC1=O (stereo not shown) [o-BPMF]
Rice d10 variant; result not shown
  tiller inhibitory activity: weak tiller inhibitory activity
Rice d10 variant; [5]
  activity of inhibiting the morphology of the tiller: high activity
Parasitic weed
  parasitic weed germination-inducing activity: stronger parasitic weed germination-inducing activity than that of p-BPMF

## CC1=CC(Oc2ccccc2Cl)OC1=O (stereo not shown) [o-CPMF]
Rice d10 variant; [5]
  activity of inhibiting the morphology of the tiller: high activity

## CC1=CC(Oc2ccccc2F)OC1=O (stereo not shown) [o-FPMF]
Rice d10 variant; [5]
  activity of inhibiting the morphology of the tiller: high activity
